Drawing on US7799775B2, “Pyrimidine derivatives” (ASKA Pharmaceutical Co., Ltd., priority 2004, dated 2010), this text covers inhibition for 17 molecules.

One test deals with T1, human 5-HT3 receptor (Homo sapiens, UniProt P46098).
T1 construct: purchased BIOLINKS K.K; host or cells: HEK-293 cells (membrane preparation)
T1 sequence (P46098 24-478): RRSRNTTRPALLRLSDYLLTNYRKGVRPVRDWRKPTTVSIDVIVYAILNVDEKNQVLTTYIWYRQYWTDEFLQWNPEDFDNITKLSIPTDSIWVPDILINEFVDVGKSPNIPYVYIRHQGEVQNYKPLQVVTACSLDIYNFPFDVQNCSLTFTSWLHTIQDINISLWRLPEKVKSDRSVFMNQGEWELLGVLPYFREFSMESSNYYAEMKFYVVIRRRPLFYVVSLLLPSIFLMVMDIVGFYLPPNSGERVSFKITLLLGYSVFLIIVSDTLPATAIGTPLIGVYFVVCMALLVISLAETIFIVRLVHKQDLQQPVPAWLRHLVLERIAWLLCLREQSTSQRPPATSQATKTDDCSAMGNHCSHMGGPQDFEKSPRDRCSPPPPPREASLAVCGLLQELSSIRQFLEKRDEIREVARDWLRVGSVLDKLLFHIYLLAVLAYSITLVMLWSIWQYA
Put plainly: Measurement of affinity to human 5-HT3 receptor (in vitro), [3H]BRL-43694 binding. Particulars: test compound 100 nmols/L; [3H]BRL-43694 0.5 nmols/L; HEK-293 cell membrane expressing human 5-HT3 receptor; read-out: Percent Inhibition (%) on Each Receptor's Binding at 10^−7M, 5-HT3. As to the method:
(2) Measurement of Affinity of Each Test Compound to Human 5-HT3 Receptor (in Vitro):
HEK-293 cell membrane sample in which human 5-HT3 receptor was expressed (purchased from BIOLINKS K.K.) 0.05 mL (about 50 microassay) was added to 24.95 mL of incubation buffer solution B (an aqueous solution of a mixture of 50 mmols/L of Tris-hydrochloric acid, 5 mmols/L of magnesium chloride and 1 mmol/L of EDTA, whose pH was adjusted to 7.5 at 25° C. with 1N-aqueous sodium hydroxide solution) and homogenized, to provide a membrane sample suspension B. Separately, each test compound was made into 270 μmols/L of DMSO solution and diluted to a prescribed concentration with the incubation buffer solution B to provide a compound solution.
A piece of polypropylene tube was charged with 20 μL of [^3H]BRL-43694 (purchased from Daiichi Pure Chemicals Co., Ltd.) (The concentration of [^3H]BRL-43694 had been advancedly adjusted to render its concentration in the reaction mixture to 0.5 nmols/L.) and 20 μL of one of the compound solutions. Further 500 μL of the membrane sample suspension B was added into the tube, followed by 60 minutes' incubation at 25° C. The reaction was terminated by rapid filtration of the reaction mixture through GF/B filter which had been advancedly immersed in a solution formed by adding to the incubation buffer solution B polyethyleneimine to a concentration of 0.5%, using Brandel cell harvester. Then the filter was washed with about 5 mL of 50 mmols/L of Tris-hydrochloric acid which had been cooled to 4° C. The filter was once again washed after similar operation.
Residual radioactivity on the filter was measured with liquid scintillation counter (ALOKA CO., LTD. LSC-5100). Percent inhibition (%) of each test compound to binding of [^3H]BRL-43694 to 5-HT3 receptor at a concentration of 0.5 nmols/L, i.e., affinity of each test compound to 5-HT3 receptor, can be calculated according to the following expression. The ratio of non-specific binding was calculated by measuring the radioactivity in case of using tropisetron: (ICS 205-930) at a concentration of 10 μmols/L, with which value the measured value of each test compound was compensated.
(§1) Affinity of each test compound to 5-HT1A receptor and 5-HT3 receptor at a concentration of 100 nmols/L were as shown in the following Tables A-1 and A-2. BRL-43694 and tropisetron (ICS 205-930), which were used in measuring affinity of those compounds to 5-HT3 receptor, have the following structures: […]

For another test, the target named is T2, human 5-HT1A receptor (Homo sapiens, UniProt P08908).
T2 construct: purchased Packard Bioscience; host or cells: CHO cells (membrane preparation)
T2 sequence (P08908 1-422): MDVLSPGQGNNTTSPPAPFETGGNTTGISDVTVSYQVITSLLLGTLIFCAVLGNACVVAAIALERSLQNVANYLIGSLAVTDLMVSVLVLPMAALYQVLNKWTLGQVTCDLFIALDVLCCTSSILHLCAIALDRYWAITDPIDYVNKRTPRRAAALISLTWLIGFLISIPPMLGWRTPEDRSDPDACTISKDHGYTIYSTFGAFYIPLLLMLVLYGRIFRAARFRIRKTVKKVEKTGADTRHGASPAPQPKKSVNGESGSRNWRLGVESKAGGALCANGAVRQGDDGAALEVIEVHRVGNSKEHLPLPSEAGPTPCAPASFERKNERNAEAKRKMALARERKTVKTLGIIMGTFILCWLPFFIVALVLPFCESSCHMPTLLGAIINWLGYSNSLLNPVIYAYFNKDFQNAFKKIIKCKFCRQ
As to the kind of experiment: Affinity measurement of the compounds to human 5-HT1A receptor (in vitro), [3H]8-OH-DPAT binding. Particulars: test compound 100 nmols/L; [3H]8-OH-DPAT 0.25 nmols/L; CHO cell membrane expressing human 5-HT1A receptor; read-out: Percent Inhibition (%) on Each Receptor's Binding at 10^−7M, 5-HT1A. How it is done:
(1) Affinity Measurement of the Compounds to Human 5-HT1A Receptor (in Vitro)
CHO cell membrane sample in which human 5-HT1A receptor was expressed (purchased from Packard Bioscience) 0.25 mL (about 50 units) was added to 24.75 mL of incubation buffer solution A (an aqueous solution of a mixture of 50 mmols/L of Tris-hydrochloric acid, 10 mmols/L of magnesium sulfate, 0.5 mmols/L of EDTA and 0.1% ascorbic acid, whose pH was adjusted to 7.4 at 27° C. with 1N-aqueous sodium hydroxide solution), and labeled as membrane sample suspension A. Separately, each test compound was made into 270 μmols/L DMSO solution and diluted to a prescribed concentration with the incubation buffer solution A, to provide a compound solution.
A piece of polypropylene tube was charged with 20 μL of [^3H]8-OH-DPAT (8-hydroxy-2-(di-n-propylamino)tetralin; purchased from Daiichi Pure Chemicals Co., Ltd.) (The concentration of the [^3H]8-OH-DPAT had been advancedly adjusted to render its concentration in the reaction mixture to 0.25 nmols/L) and 20 μL of one of the compound solutions. Further 500 μL of the membrane sample suspension A was added into the tube, followed by 60 minutes' incubation at 27° C. The reaction was terminated by rapid filtration of the reaction mixture through GF/C filter which had been advancedly immersed in a solution formed by adding to the incubation buffer solution A polyethyleneimine to a concentration of 0.3%, using Brandel cell harvester. Then the filter was washed with about 5 mL of 50 mmols/L of Tris-hydrochloric acid which had been cooled to 4° C. The filter was once again washed after similar operation.
Residual radioactivity on the filter was measured with liquid scintillation counter (Aloka Co., LSC-5100). Percent inhibition (%) of each test compound to binding of [^3H]8-OH-DPAT to 5-HT1A receptor at a concentration of 0.25 nmols/L, i.e., affinity of each test compound to 5-HT1A receptor, can be calculated according to the following expression. The ratio of non-specific binding was calculated by measuring the radioactivity in case of using 8-OH-DPAT at a concentration of 10 μmols/L, with which value the measured value of each test compound was compensated.
as §1

Molecules are shown by their SMILES. Structures can show the parent of a compound that is named as a salt.

What is called inhibition is the relative decrease from the control value, in per cent.

Regarding `O=c1[nH]c(NCCCN2CCN(c3nc4ccccc4n4cccc34)CC2)nc2ccccc12` [Example 5-8, 2-[3-(4-pyrrolo[1,2-a]quinoxalin-4-ylpiperazin-1-yl)propylamino]-3H-quinazolin-4-one], the inhibition at 0.1 µM is 85.5% at human 5-HT3 receptor and 54.5% on human 5-HT1A receptor.
The like results for `c1cc2occc2c(N2CCN3CCCCC3C2)n1` (stereo not shown) [Production Example 119, 4-octahydropyrido[1,2-a]pyrazin-2-ylfuro[3,2-c]pyridine] were, in that order, 71.9% and 33.7%.
The matching figures for `O=c1c2c(nc(CCCCN3CCN(c4nc5ccccc5s4)CC3)n1Cc1ccccc1)CCCC2` [Example 7-11, 2-[4-(4-benzothiazol-2-ylpiperazin-1-yl)butyl]-3-benzyl-5,6,7,8-tetrahydro-3H-quinazolin-4-one]: 24.7% and 45%.
With `Brc1cc2c(N3CCN4CCC[C@H]4C3)nccc2s1` [Production Example 106, 2-bromo-4-((8aS)-octahydropyrrolo[1,2-a]pyrazin-2-yl)thieno[3,2-c]-pyridine], the inhibition at 0.1 µM was 98.3% at human 5-HT3 receptor and 101% on human 5-HT1A receptor.
The like results for `Cc1cc(N2CCN(CCCSc3nc4sc5c(c4c(=O)[nH]3)CCNC5)CC2)nc2ccccc12` [Example 2-20, 2-[3-[4-(4-methylquinolin-2-yl)piperazin-1-yl]propylthio]-3,4,5,6,7,8-hexahydro-4-oxo-9-thia-1,3,7-triaza-9H-fluorene trihydrochloride] were, in that order, 52.8% and 81.6%.
`COc1ccc2c(C)cnc(N3CCNCC3)c2c1` [Production Example 28, 7-methoxy-4-methyl-1-piperazin-1-ylisoquinoline]: the inhibition at 0.1 µM amounted to 92.5% at human 5-HT3 receptor and 23.9% at human 5-HT1A receptor.
The matching figures for `Cn1c(CCCCN2CCN(c3ccc4ccccc4n3)CC2)nc2ccc(Cl)cc2c1=O` [Example 7-25, 6-chloro-3-methyl-2-[4-(4-quinolin-2-ylpiperazin-1-yl)butyl]-3H-quinazolin-4-one]: 99.7% and 97.5%.
`Brc1ccc2ccnc(N3CCNCC3)c2c1` [Production Example 30, 7-bromo-1-piperazin-1-ylisoquinoline]: the inhibition at 0.1 µM on human 5-HT3 receptor came out at 93.4%; at human 5-HT1A receptor, 92.8%.
The like results for `O=c1c2c(nc(CCCCN3CCN(c4ccc5ccccc5n4)CC3)n1Cc1ccccc1)CCCC2` [Example 7-4, 3-benzyl-2-[4-(4-quinolin-2-ylpiperazin-1-yl)butyl]-5,6,7,8-tetrahydro-3H-quinazolin-4-one] were, in that order, 61.2% and 85%.
The matching figures for `CC1CCc2nc(CCCCN3CCN(c4ccc5ccccc5n4)CC3)n(C)c(=O)c2C1` (stereo not shown) [Example 7-12, 3,6-dimethyl-2-[4-(4-quinolin-2-ylpiperazin-1-yl)butyl]-5,6,7,8-tetrahydro-3H-quinazolin-4-one]: 93.2% and 96%.
The matching figures for `COc1ccc2ccnc(N3CCN4CCC[C@@H]4C3)c2c1` [Production Example 77, 1-((8aR)-octahydropyrrolo[1,2-a]pyrazin-2-yl)-7-methoxyisoquinoline]: 97.9% and 98.9%.
Take `CC(CCCc1nc2c(c(=O)n1C)CCCC2)N1CCN(c2ccc3ccccc3n2)CC1` (stereo not shown) [Example 7-14, 3-methyl-2-[4-(4-quinolin-2-ylpiperazin-1-yl)pentyl]-5,6,7,8-tetrahydro-3H-quinazolin-4-one]: the inhibition at 0.1 µM on human 5-HT3 receptor turned out to be 16.7%; on human 5-HT1A receptor it was 77.8%.
The like results for `CC(C)n1c(CCCCN2CCN(c3ccc4ccccc4n3)CC2)nc2ccccc2c1=O` [Example 7-15, 3-isopropyl-2-[4-(4-quinolin-2-ylpiperazin-1-yl)butyl]-3H-quinazolin-4-one] were, in that order, 35% and 62.1%.
The like results for `Cc1cc(N2CCN(CCCCc3nc4c(c(=O)n3Cc3ccccc3)CCCC4)CC2)nc2ccccc12` [Example 7-8, 3-benzyl-2-[4-[4-(4-methylquinolin-2-yl)piperazin-1-yl]butyl]-5,6,7,8-tetrahydro-3H-quinazolin-4-one] were, in that order, 78.8% and 93.4%.
The matching figures for `CCC1CCc2nc(CCCCN3CCN(c4ccc5ccccc5n4)CC3)n(N)c(=O)c2C1` (stereo not shown) [Example 4-61, 3-amino-6-ethyl-2-[4-(4-quinolin-2-ylpiperazin-1-yl)butyl]-5,6,7,8-tetrahydro-3H-quinazolin-4-one]: 88.7% and 96.8%.
With `c1ccc(CO[C@@H]2C[C@H]3CN(c4nccc5ccsc45)CCN3C2)cc1` [Production Example 116, 7-((7R,8aS)-7-benzyloxyoctahydropyrrolo[1,2-a]pyrazin-2-yl)thieno-[2,3-c]pyridine], the inhibition at 0.1 µM was 25.6% on human 5-HT3 receptor and 70.6% on human 5-HT1A receptor.
For the molecule `CN1CCN(c2nccc3ccc(N(C)C)cc23)CC1` [Production Example 89, 7-dimethylamino-1-(4-methylpiperazin-1-yl)isoquinoline], the values for the inhibition at 0.1 µM at human 5-HT3 receptor and at human 5-HT1A receptor were 83.5% and 92.1%, respectively.
